Assay results published in patent US10030004B2, “Compounds and methods of use” (Medivation Technologies LLC, priority 2014, dated 2018).
Read-outs that look alike come from different tables or passages of the source.

Legend:
[1] = target: ALK3 (BMPR1A) (Homo sapiens (Human), UniProt P36894); assay: In vitro kinase assay, ALK3; type: biochemical; settings: read-out: Inhibition of ALK3 IC50
[2] = target: ALK1 (ACVRL1) (Homo sapiens (Human), UniProt P37023); assay: In vitro kinase assay, ALK1; type: biochemical; settings: 10 μM ATP; read-out: Inhibition of ALK1 IC50
[3] = target: ALK2 (ACVR1) (Homo sapiens (Human), UniProt Q04771); assay: In vitro kinase assay, ALK2; type: biochemical; settings: read-out: Inhibition of ALK2 IC50
[4] = target: ALK6 (BMPR1B) (Homo sapiens (Human), UniProt O00238); assay: In vitro kinase assay, ALK6; type: biochemical
[5] = Pharmacokinetics and bioavailability in male mice after a single dose; type: in vivo; settings: for AUC(0-t) / Cmax / clearance / Tmax / bioavailability / half-life: mouse, plasma; for half-life: read-out: Terminal t1/2 (converted)
[6] = system: p-SMAD2; assay: p-SMAD2 inhibition, Western Blot Analysis in TGFβ-stimulated MDA-MB-231 cells; type: cell-based; settings: Homo sapiens, TGFβ 2 ng/mL, triplicate; for inhibition at 0.1 µM: 0.1 μM compound, read-out: Average p-SMAD2 inhibition @ 0.1 μM (% Inh)
[7] = Plasma and brain concentrations at 0.5 and 1 h in mice; type: in vivo; settings: male, mouse
[8] = target: ALK4 (ACVR1B) (Homo sapiens (Human), UniProt P36896); assay: In vitro kinase assay, ALK4; type: biochemical; settings: 10 μM ATP; read-out: Inhibition of ALK4 IC50
[9] = target: ALK5 (TGFBR1) (Homo sapiens (Human), UniProt P36897); assay: In vitro kinase assay, ALK5; type: biochemical; settings: 10 μM ATP; read-out: Inhibition of ALK5 IC50
[10] = 10 μM ATP, read-out: Inhibition of ALK6 IC50
[11] = brain, 2 mg/kg, IV, read-out: Brain Concentration
[12] = brain, 10 mg/kg, PO, read-out: Brain Concentration
[13] = plasma, 2 mg/kg, IV, read-out: Plasma Concentration
[14] = plasma, 10 mg/kg, PO, read-out: Plasma Concentration
[15] = brain, IV (2 mg/kg), read-out: Brain concentration
[16] = brain, PO (10 mg/kg), read-out: Brain concentration
[17] = plasma, IV (2 mg/kg), read-out: Plasma concentration
[18] = plasma, PO (10 mg/kg), read-out: Plasma concentration

Chain of ALK2 (ACVR1) (Q04771 21-509): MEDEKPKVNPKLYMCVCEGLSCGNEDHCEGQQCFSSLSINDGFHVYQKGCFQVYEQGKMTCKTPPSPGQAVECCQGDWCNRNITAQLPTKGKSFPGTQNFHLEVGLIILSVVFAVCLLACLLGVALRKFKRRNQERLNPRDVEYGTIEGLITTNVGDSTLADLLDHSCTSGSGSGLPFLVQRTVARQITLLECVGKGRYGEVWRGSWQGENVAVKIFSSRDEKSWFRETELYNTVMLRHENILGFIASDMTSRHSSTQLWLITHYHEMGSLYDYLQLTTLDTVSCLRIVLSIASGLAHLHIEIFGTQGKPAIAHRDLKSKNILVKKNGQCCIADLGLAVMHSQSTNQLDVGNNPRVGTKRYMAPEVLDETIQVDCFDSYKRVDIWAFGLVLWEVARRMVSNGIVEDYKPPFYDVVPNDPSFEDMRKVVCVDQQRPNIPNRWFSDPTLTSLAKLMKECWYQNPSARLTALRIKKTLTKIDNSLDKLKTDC
Chain of ALK1 (ACVRL1) (P37023 22-503): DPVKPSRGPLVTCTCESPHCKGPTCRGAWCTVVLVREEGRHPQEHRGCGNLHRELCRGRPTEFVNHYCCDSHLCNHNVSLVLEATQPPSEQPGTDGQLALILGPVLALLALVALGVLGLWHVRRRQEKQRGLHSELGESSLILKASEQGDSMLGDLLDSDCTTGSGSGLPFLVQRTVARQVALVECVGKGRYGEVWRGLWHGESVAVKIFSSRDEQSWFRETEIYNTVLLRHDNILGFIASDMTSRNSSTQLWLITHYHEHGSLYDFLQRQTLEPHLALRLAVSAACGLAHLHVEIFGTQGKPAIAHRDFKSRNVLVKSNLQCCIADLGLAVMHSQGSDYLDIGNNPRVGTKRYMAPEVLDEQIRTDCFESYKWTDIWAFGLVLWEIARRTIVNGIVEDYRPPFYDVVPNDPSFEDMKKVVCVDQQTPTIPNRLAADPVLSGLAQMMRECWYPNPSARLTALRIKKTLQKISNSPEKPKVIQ
Chain of ALK6 (BMPR1B) (O00238 14-502): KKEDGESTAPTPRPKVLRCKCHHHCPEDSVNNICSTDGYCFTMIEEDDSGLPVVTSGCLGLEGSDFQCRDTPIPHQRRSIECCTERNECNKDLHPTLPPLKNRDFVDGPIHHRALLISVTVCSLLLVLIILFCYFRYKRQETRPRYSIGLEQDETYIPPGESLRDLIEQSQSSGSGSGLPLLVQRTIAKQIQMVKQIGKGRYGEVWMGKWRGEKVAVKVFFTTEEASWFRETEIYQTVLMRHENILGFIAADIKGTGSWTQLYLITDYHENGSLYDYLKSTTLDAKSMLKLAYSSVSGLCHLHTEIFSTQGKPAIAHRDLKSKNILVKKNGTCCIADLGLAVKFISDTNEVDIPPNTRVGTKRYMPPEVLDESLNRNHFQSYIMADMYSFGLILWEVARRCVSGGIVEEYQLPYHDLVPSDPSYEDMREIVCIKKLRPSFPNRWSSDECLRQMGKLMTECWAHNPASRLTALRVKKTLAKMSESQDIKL
Chain of ALK3 (BMPR1A) (P36894 24-532): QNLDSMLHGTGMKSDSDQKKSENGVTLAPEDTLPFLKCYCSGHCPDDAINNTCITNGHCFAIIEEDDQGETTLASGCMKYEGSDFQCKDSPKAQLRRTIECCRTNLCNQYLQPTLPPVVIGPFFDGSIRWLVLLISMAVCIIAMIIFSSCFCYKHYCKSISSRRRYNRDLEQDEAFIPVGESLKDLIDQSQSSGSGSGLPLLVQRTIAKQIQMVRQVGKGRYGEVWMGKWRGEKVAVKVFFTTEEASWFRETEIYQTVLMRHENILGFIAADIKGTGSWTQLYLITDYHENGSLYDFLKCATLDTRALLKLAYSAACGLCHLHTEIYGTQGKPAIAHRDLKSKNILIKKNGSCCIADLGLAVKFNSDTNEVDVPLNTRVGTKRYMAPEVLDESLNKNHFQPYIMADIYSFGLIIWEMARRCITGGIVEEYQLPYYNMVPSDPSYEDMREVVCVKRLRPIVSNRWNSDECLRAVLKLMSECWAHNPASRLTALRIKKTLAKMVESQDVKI
Chain of ALK4 (ACVR1B) (P36896 24-505): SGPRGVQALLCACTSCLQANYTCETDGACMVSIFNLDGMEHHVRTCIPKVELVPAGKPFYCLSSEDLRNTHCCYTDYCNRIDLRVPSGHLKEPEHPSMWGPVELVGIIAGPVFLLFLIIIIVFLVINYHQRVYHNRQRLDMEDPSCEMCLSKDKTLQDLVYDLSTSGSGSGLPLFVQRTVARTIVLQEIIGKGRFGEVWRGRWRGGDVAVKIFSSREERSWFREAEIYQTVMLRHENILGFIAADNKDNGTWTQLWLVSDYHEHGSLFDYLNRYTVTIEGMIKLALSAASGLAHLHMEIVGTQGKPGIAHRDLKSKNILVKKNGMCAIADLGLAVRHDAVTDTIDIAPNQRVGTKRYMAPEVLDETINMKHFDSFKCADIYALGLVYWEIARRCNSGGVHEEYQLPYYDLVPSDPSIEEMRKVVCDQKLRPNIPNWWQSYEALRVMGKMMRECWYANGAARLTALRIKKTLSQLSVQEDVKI
Chain of ALK5 (TGFBR1) (P36897 34-503): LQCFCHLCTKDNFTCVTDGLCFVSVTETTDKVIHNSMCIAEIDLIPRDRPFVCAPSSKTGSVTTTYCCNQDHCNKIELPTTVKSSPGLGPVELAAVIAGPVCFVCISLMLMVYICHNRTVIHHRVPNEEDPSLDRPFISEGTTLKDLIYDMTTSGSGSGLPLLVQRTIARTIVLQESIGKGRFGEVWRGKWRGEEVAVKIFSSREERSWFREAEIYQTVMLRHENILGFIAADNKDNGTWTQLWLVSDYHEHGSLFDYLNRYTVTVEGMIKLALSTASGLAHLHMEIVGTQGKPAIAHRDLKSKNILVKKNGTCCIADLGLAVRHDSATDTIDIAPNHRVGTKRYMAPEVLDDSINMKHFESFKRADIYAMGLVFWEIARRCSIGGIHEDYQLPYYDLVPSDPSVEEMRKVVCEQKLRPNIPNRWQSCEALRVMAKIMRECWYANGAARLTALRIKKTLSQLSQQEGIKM

Row | SMILES | IC50 ([1]; 10 μM ATP) [µM] | IC50 [2] [µM] | IC50 ([3]; 10 μM ATP) [µM] | IC50 [4, 10] [µM] | AUC(0-t) ([5]; intravenous, 2 mg/kg) [nM·h] | Cmax ([5]; intravenous, 2 mg/kg) [µM] | clearance ([5]; intravenous, 2 mg/kg) [L/h/kg] | AUC(0-t) ([5]; oral, 10 mg/kg) [nM·h] | Cmax ([5]; oral, 10 mg/kg) [µM] | Tmax ([5]; oral, 10 mg/kg) [h] | bioavailability ([5]; oral, 10 mg/kg) [%] | further results
1 | C=C(C)c1cnc(-c2cc(Cl)ccc2F)cc1Nc1ccncc1C(=O)N1CCCC1 [compound 34, 2-(5-chloro-2-fluorophenyl)-5-(prop-1-en-2-yl)-N-[3-(pyrrolidine-1-carbonyl)pyridin-4-yl]pyridin-4-amine] | > 10 | > 10 | > 10 |  |  |  |  |  |  |  |  | 
2 | C[C@H](O)CNC(=O)c1cnccc1Nc1cc(-c2cc(Cl)ccc2F)ncc1C1CC1 [compound 31, 4-{[2-(5-chloro-2-fluorophenyl)-5-cyclopropylpyridin-4-yl]amino}-N-[(2S)-2-hydroxypropyl]pyridine-3-carboxamide] | > 10 | > 10 | > 10 | > 10 |  |  |  |  |  |  |  | 
3 | C=C(C)c1c(Nc2ccncc2C(=O)NC[C@H](C)O)cc(-c2cc(Cl)ccc2F)nc1N (single isomer, unassigned) [23a] | > 100 |  | > 100 | > 100 | 1110 | 2.56 | 3.96 | 907 | 0.612 | 0.25 | 16.4 | 
4 | CC(C)c1cnc(-c2ncccc2F)cc1Nc1ncnc2[nH]ccc12 [compound 30, 2-(3-fluoropyridin-2-yl)-5-(propan-2-yl)-N-{7H-pyrrolo[2,3-d]pyrimidin-4-yl}pyridin-4-amine] | > 10 |  | 73 | 13.5 |  |  |  |  |  |  |  | 
5 | Fc1ccc(Cl)cc1-c1cc(Nc2ccnc3[nH]ccc23)c(C2CC2)cn1 [compound 32, 2-(5-chloro-2-fluorophenyl)-5-cyclopropyl-N-{1H-pyrrolo[2,3-b]pyridin-4-yl}pyridin-4-amine] | 3.33 |  |  |  |  |  |  |  |  |  |  | IC50 [3]: 5.84 µM
6 | CC(C)c1cnc(-c2cc(Cl)ccc2F)cc1Nc1ccncc1C(=O)N1CCC(O)CC1 [compound 9, [4-[[2-(5-chloro-2-fluoro-phenyl)-5-isopropyl-4-pyridyl]amino]-3-pyridyl]-(4-hydroxy-1-piperidyl)methanone] |  |  |  |  |  |  |  |  |  |  |  | inhibition at 0.1 µM [6]: 6%; inhibition at 0.5 µM ([6]; 0.5 μM compound, read-out: Average p-SMAD2 inhibition @ 0.5 μM (% Inh)): 12.7%
7 | C[C@H](O)CNC(=O)c1cnccc1Nc1cc(-c2cc(Cl)ccc2F)ncc1N(C)C (single isomer, unassigned) [16a] |  |  |  | > 1000 | 4410 | 3.4 | 1.02 | 7500 | 3.42 | 0.5 | 34.1 | concentration at 0.5 h [7, 11]: 0.048 µM; concentration at 1 h [7, 11]: 0.019 µM; concentration at 0.5 h [7, 12]: 0.048 µM; concentration at 1 h [7, 12]: 0.025 µM; concentration at 0.5 h [7, 13]: 3.04 µM; concentration at 1 h [7, 13]: 1.23 µM; concentration at 0.5 h [7, 14]: 3.42 µM; concentration at 1 h [7, 14]: 1.69 µM; V ([5]; intravenous, 2 mg/kg): 0.967 L/kg; half-life ([5]; intravenous, 2 mg/kg): 0.655 h; half-life ([5]; oral, 10 mg/kg): 2.36 h
8 | CC(C)c1cnc(-c2cc(Cl)ccc2F)cc1Nc1ncnc2[nH]ncc12 [compound 36, 2-(5-chloro-2-fluorophenyl)-5-(propan-2-yl)-N-{1H-pyrazolo[3,4-d]pyrimidin-4-yl}pyridin-4-amine] |  |  |  |  |  |  |  |  |  |  |  | IC50 [1]: > 10 µM; IC50 [3]: 8.93 µM
9 | COc1cnc(-c2cc(Cl)ccc2F)cc1Nc1ccncc1C(=O)NC[C@H](C)O (single isomer, unassigned) [13a] |  |  |  |  | 1560 | 1.42 | 1.24 | 5640 | 1.6 | 0.25 | 72.3 | IC50 [1]: > 100 µM; V ([5]; intravenous, 2 mg/kg): 3.72 L/kg; half-life ([5]; intravenous, 2 mg/kg): 2.09 h; half-life ([5]; oral, 10 mg/kg): 2.85 h
10 | C=C(C)c1cnc(-c2cc(Cl)ccc2F)cc1Nc1ccncc1C(=O)NC(C)(C)CO [compound 8, 4-[[2-(5-chloro-2-fluoro-phenyl)-5-isopropenyl-4-pyridyl]amino]-N-(2-hydroxy-1,1-dimethyl-ethyl)pyridine-3-carboxamide] | > 100 | > 100 |  |  | 709 | 1.24 | 6.15 | 1310 | 1.06 | 0.25 | 36.9 | IC50 [3]: > 100 µM; V ([5]; intravenous, 2 mg/kg): 14.9 L/kg; half-life ([5]; intravenous, 2 mg/kg): 1.68 h; half-life ([5]; oral, 10 mg/kg): 1.26 h
11 | C=C(C)c1cnc(-c2cc(Cl)ccc2F)cc1Nc1ccncc1C(=O)N[C@@H](C)CO [7a, (S)-4-(2-(5-chloro-2-fluorophenyl)-5-(prop-1-en-2-yl)pyridin-4-ylamino)-N-(1-hydroxypropan-2-yl)nicotinamide] | > 100 |  | 10.9 |  |  |  |  |  |  |  |  | 
12 | C=Cc1cnc(-c2cc(Cl)ccc2F)cc1Nc1ccncc1C(=O)NC[C@H](C)O [10a, (S)-4-(2-(5-chloro-2-fluorophenyl)-5-vinylpyridin-4-ylamino)-N-(2-hydroxypropyl)nicotinamide] |  |  |  |  |  |  |  |  |  |  |  | inhibition at 0.1 µM [6]: 0%
13 | C=C(C)c1cnc(-c2cc(Cl)ccc2F)cc1Nc1ccncc1C(=O)NCCO [compound 26, 4-[[2-(5-chloro-2-fluoro-phenyl)-5-isopropenyl-4-pyridyl]amino]-N-(2-hydroxyethyl)pyridine-3-carboxamide] | > 100 |  | > 100 | > 100 | 1760 | 3 | 2.66 | 2360 | 1.29 | 0.5 | 26.9 | V ([5]; intravenous, 2 mg/kg): 6.21 L/kg; half-life ([5]; intravenous, 2 mg/kg): 1.62 h; half-life ([5]; oral, 10 mg/kg): 1.66 h
14 | CC(C)c1cnc(-c2ncccc2F)cc1Nc1ccnc2[nH]ccc12 [compound 29, 2-(3-fluoropyridin-2-yl)-5-(propan-2-yl)-N-{1H-pyrrolo[2,3-b]pyridin-4-yl}pyridin-4-amine] |  |  |  | 15.3 |  |  |  |  |  |  |  | IC50 [3]: 60.6 µM
15 | CC(O)CNC(=O)c1c[nH]nc1Nc1cc(-c2cc(Cl)ccc2F)ncc1C(C)C (single isomer, unassigned) [21a, 3-[[2-(5-chloro-2-fluoro-phenyl)-5-isopropyl-4-pyridyl]amino]-N-(2-hydroxypropyl)-1H-pyrazole-4-carboxamide] | > 1000 | > 100 | > 1000 |  |  |  |  |  |  |  |  | IC50 [4]: > 1000 µM; IC50 [8]: > 1000 µM; IC50 [9]: > 100 µM
16 | CC(C)c1cnc(-c2ccccc2)cc1Nc1ccncc1C(=O)NC[C@H](C)O [compound 28, N-(2-hydroxypropyl)-4-[(5-isopropyl-2-phenyl-4-pyridyl)amino]pyridine-3-carboxamide] | > 1000 | > 100 | > 1000 | > 1000 |  |  |  |  |  |  |  | 
17 | C=C(C)c1cnc(-c2cc(Cl)ccc2F)cc1Nc1ccncc1C(=O)NC[C@H](C)O (single isomer, unassigned) [3a] |  |  |  | > 100 | 2560 | 0.602 | 0.77 | 10500 | 1.65 | 0.25 | 82 | concentration at 0.5 h [7, 15]: 0.173 µg/mL; concentration at 1 h [7, 15]: 0.168 µg/mL; concentration at 0.5 h [7, 16]: 0.305 µg/mL; concentration at 1 h [7, 16]: 0.406 µg/mL; concentration at 0.5 h [7, 17]: 0.432 µg/mL; concentration at 1 h [7, 17]: 0.365 µg/mL; concentration at 0.5 h [7, 18]: 1.28 µg/mL; concentration at 1 h [7, 18]: 1.25 µg/mL; V ([5]; intravenous, 2 mg/kg): 1.29 L/kg; half-life ([5]; intravenous, 2 mg/kg): 3.86 h; half-life ([5]; oral, 10 mg/kg): 3.85 h
18 | C=C(C)c1cnc(-c2cc(Cl)ccc2F)cc1Nc1ccncc1C(=O)N[C@@H](CC)CO (single isomer, unassigned) [24a] | > 100 | > 100 | > 100 | > 100 |  |  |  |  |  |  |  | 
